The target in data set [1] is hNAMPT protein (Homo sapiens (Human), UniProt P43490). Description: NAMPT enzyme assay (TR-FRET/HTRF with BodiPY ligand). It counts as binding. The note with it: for IC50: NAMPT inhibition, IC50 range class. A digest of the protocol:
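His-tagged hNAMPT with anti-6His-Tb, incubated with compound and BodiPY ligand for 1 h at rt in the dark, in Tris-HCl pH 7.5 buffer with DTT, NaCl, MgCl2 and Tween 20. TR-FRET measured with 320 nm excitation as the 520/486 nm emission ratio. IC50 fitted relative to DMSO controls.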
(In general: In TR-FRET formats the signal depends on donor and acceptor labels being close together.)

In data set [2] the test system is PC3 cells. Briefly: PC3 growth inhibition (Cell-titer glo, 72 hours). The class given is cell-based. The settings on record: for viability at 1.667 µM: Homo sapiens, PC-3, 72 h, read-out: Percent Viability, PC3 cells, compound concentration 1.667 μM, 72 hours. The essentials:
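PC3 cells grown in RPMI1640 plated at 8×10^4 cells/ml, incubated overnight, then exposed to compound diluted in AIM serum-free medium for 72 h at 37 °C, 5% CO2. Luminescence by CellTiter-Glo relative to DMSO controls; % viability at single concentration, GI50 or LD50 from concentration-response curves.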

The mark [3] stands for this setting: NAMPT inhibition at compound concentration 1 μM, read-out: Percent Inhibition.

Where two headings read alike, the source gives them in different places. Bounds are passed on as bounds.

The term inhibition denotes how much of the control response was suppressed. As usually defined, the IC50 is the concentration that inhibits the measured activity by half. A low value points to greater potency in that assay.

hNAMPT protein, sequence (P43490 whole entry): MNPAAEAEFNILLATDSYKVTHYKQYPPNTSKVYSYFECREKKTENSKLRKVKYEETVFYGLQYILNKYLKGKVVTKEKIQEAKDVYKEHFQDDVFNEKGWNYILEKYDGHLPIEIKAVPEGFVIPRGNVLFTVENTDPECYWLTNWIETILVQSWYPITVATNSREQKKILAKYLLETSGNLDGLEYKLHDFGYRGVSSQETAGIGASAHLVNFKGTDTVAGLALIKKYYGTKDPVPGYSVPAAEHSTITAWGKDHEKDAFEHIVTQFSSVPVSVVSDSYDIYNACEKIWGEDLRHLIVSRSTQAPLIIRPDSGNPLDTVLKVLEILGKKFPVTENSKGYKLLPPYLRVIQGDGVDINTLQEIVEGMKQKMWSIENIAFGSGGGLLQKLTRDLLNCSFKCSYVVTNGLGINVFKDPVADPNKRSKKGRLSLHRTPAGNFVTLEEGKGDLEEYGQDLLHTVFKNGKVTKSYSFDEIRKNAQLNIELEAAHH

Take `CCOc1cc(-c2cccc(OC(F)(F)F)c2)nc2cc(C(=O)NCCCc3nnc[nH]3)ccc12` [Compound I-216, 4-ethoxy-N-[3-(4H-1,2,4-triazol-3-yl)propyl]-2-[3-(trifluoromethoxy)phenyl]quinoline-7-carboxamide]: the inhibition at 1 µM in data set [1] (setting [3]) came out at 92%. This compound yielded an IC50 in data set [1] of 50 to 100 nM. For the same compound, the viability at 1.667 µM in data set [2] came to 1%.
The corresponding values for `CCOc1cc(-c2ccc(OC)nc2)nc2cc(C(=O)NCCc3[nH]nnc3C)ccc12` [Compound I-88, 4-ethoxy-2-(6-methoxypyridin-3-yl)-N-[2-(4-methyl-1H-1,2,3-triazol-5-yl)ethyl]quinoline-7-carboxamide] are 97%, 10 to 50 nM and 1%.
`CCOc1cc(-c2ccccc2)nc2cc(C(=O)NCCCc3nnc[nH]3)ccc12` [Compound I-207, 4-ethoxy-2-phenyl-N-[3-(4H-1,2,4-triazol-3-yl)propyl]quinoline-7-carboxamide]: the inhibition at 1 µM in data set [1] (setting [3]) came out at 96%. This compound returned an IC50 in data set [1] of 10 to 50 nM. Also, in data set [2], the viability at 1.667 µM came out at 2%.
The corresponding values for `CCOc1cc(SCC)nc2cc(C(=O)NCCCc3ncc[nH]3)ccc12` [Compound I-49, N-(3-(1H-Imidazol-2-yl)propyl)-4-ethoxy-2-(ethylthio)quinoline-7-carboxamide] are 98%, less than 10 nM and 5%.
The corresponding values for `CCOc1cc(-c2cc(C)nc(OC)c2)nc2cc(C(=O)NCCCc3nnc[nH]3)ccc12` [Compound I-136, 4-ethoxy-2-(2-methoxy-6-methylpyridin-4-yl)-N-[3-(4H-1,2,4-triazol-3-yl)propyl]quinoline-7-carboxamide] are 98%, less than 10 nM and 2%.
With `CCOc1cc(-c2ccc(F)cc2)nc2cc(C(=O)NCCc3cnn[nH]3)ccc12` [Compound I-107, 4-ethoxy-2-(4-fluorophenyl)-N-[2-(1H-1,2,3-triazol-5-yl)ethyl]quinoline-7-carboxamide], the inhibition at 1 µM in data set [1] (setting [3]) is 99%. This compound also had an IC50 in data set [1] of less than 10 nM. The viability at 1.667 µM in data set [2] was found to be 2%.
For `CCOc1cc(-c2ccc(F)cc2)nc2cc(C(=O)NCCc3nnc(N)[nH]3)ccc12` [Compound I-142, N-[2-(5-amino-4H-1,2,4-triazol-3-yl)ethyl]-4-ethoxy-2-(4-fluorophenyl)quinoline-7-carboxamide], the inhibition at 1 µM in data set [1] (setting [3]) was 89%. This compound also yielded an IC50 in data set [1] greater than 100 nM. The viability at 1.667 µM in data set [2] worked out at 14%.
The corresponding values for `CCNc1nc(-c2ccc(F)cc2)nc2cc(C(=O)NCCCc3ncc[nH]3)ccc12` [Compound I-41, 4-(ethylamino)-2-(4-fluorophenyl)-N-[3-(1H-imidazol-2-yl)propyl]quinazoline-7-carboxamide] are 92%, greater than 100 nM and 2%.
For `O=C(NCCCc1ncc[nH]1)c1ccc2c(-c3ccc(F)cc3)nc(-c3ccc(Cl)cc3)nc2c1` [Compound I-57, 2-(4-Chlorophenyl)-4-(4-fluorophenyl)-N-[3-(1H-imidazol-2-yl)propyl]quinazoline-7-carboxamide] the same measures were 99%, less than 10 nM and 1%.
For `CCOc1cc(-c2ccc(F)cc2)nc2cc(C(=O)NCc3nc4ccccc4[nH]3)ccc12` [Compound I-54, N-(1H-benzimidazol-2-ylmethyl)-4-ethoxy-2-(4-fluorophenyl)quinoline-7-carboxamide], the inhibition at 0.33 µM in data set [1] (NAMPT inhibition at compound concentration 0.33 μM, read-out: Percent Inhibition) was 96%. The compound also came in with an IC50 in data set [1] of less than 10 nM. Also, the viability at 1.667 µM in data set [2] was 94%.
As for `CCOc1cc(-c2cccnc2)nc2cc(C(=O)NCCCc3nnc[nH]3)ccc12` [Compound I-209, 4-ethoxy-2-(pyridin-3-yl)-N-[3-(4H-1,2,4-triazol-3-yl)propyl]quinoline-7-carboxamide], the inhibition at 1 µM in data set [1] (setting [3]) was found to be 92%. For the same compound, the IC50 in data set [1] was in the range of 50 to 100 nM. For the same compound, the viability at 1.667 µM in data set [2] was 1%.
For `CCCc1nc(-c2ccc(Cl)cc2)nc2cc(C(=O)NCc3ccc4nccn4c3)ccc12` [Compound I-8, 2-(4-chlorophenyl)-N-(imidazo[1,2-a]pyridin-6-ylmethyl)-4-propylquinazoline-7-carboxamide] the same measures were 98%, less than 10 nM and 1%.
On to `CCOc1cc(-c2cncnc2)nc2cc(C(=O)NCCCc3nnc[nH]3)ccc12` [Compound I-208, 4-ethoxy-2-(pyrimidin-5-yl)-N-[3-(4H-1,2,4-triazol-3-yl)propyl]quinoline-7-carboxamide], for which the inhibition at 1 µM in data set [1] (setting [3]) was found to be 86%. This compound also came in with an IC50 in data set [1] greater than 100 nM. Further, in data set [2], the viability at 1.667 µM was determined as 2%.
The corresponding values for `CCCc1cc(-c2ccc(F)cc2)nc2cc(C(=O)NCCCc3ncc[nH]3)ccc12` [Compound I-163, 2-(4-fluorophenyl)-N-[3-(1H-imidazol-2-yl)propyl]-4-propylquinoline-7-carboxamide] are 97%, less than 10 nM and 2%.
Turning to `CCOc1c(F)c(-c2ccnc(OC)c2)nc2cc(C(=O)NCCCc3[nH]nnc3C)ccc12` [Compound I-65, 4-ethoxy-3-fluoro-2-(2-methoxypyridin-4-yl)-N-[3-(4-methyl-1H-1,2,3-triazol-5-yl)propyl]quinoline-7-carboxamide], the inhibition at 1 µM in data set [1] (setting [3]) came out at 91%. In data set [1], this compound came in with a half-inhibitory concentration (IC50) of 50 to 100 nM. The viability at 1.667 µM in data set [2] stood at 1%.
The corresponding values for `CCOc1cc(-c2cc(OC)ncc2F)nc2cc(C(=O)NCCCc3nnc[nH]3)ccc12` [Compound I-225, 4-ethoxy-2-(5-fluoro-2-methoxypyridin-4-yl)-N-[3-(4H-1,2,4-triazol-3-yl)propyl]quinoline-7-carboxamide] are 97%, 10 to 50 nM and 2%.
The corresponding values for `CCOc1cc(-c2ccc(C)nc2)nc2cc(C(=O)NCCc3nnc[nH]3)ccc12` [Compound I-168, 4-ethoxy-2-(6-methylpyridin-3-yl)-N-[2-(4H-1,2,4-triazol-3-yl)ethyl]quinoline-7-carboxamide] are 95%, 10 to 50 nM and 2%.
Take `CCOc1cc(-c2ccc(Cl)cc2)nc2cc(C(=O)NCCCc3nnc[nH]3)ccc12` [Compound I-198]: the inhibition at 1 µM in data set [1] (setting [3]) worked out at 94%. For the same compound, the viability at 1.667 µM in data set [2] amounted to 3%.
In data set [1], `CCSc1nc(-c2ccc(F)cc2)nc2cc(C(=O)NCCCc3ncc[nH]3)ccc12` [Compound I-27, 4-(ethylsulfanyl)-2-(4-fluorophenyl)-N-[3-(1H-imidazol-2-yl)propyl]quinazoline-7-carboxamide] showed an IC50 of less than 10 nM. Further, in data set [1] (read-out: Percent Inhibition), the inhibition at 1 µM stood at 98%. The viability at 1.667 µM in data set [2] was 1%.
In the case of `CCOc1cc(-c2ccc(F)cc2)nc2cc(C(=O)NCC3CC3c3ncc[nH]3)ccc12` (single isomer, unassigned) [Compound I-51, 4-Ethoxy-2-(4-fluorophenyl)-N-{[trans-(1,2)-2-(1H-imidazol-2-yl)cyclopropyl]methyl}quinoline-7-carboxamide], the “Percent Inhibition” value in data set [1] (NAMPT inhibition at compound concentration 1 μM) is 98%. For the same compound, the half-maximal inhibitory concentration (IC50) in data set [1] lay in the range of 10 to 50 nM. Moreover, the “Percent Viability” value in data set [2] (human, 72 h, 1.667 µM) came out at 4%.
With `CCOc1cc(-c2ccc(C)nc2OC)nc2cc(C(=O)NCCCc3nc[nH]n3)ccc12` [Compound I-183, 4-ethoxy-2-(2-methoxy-6-methylpyridin-3-yl)-N-[3-(1H-1,2,4-triazol-3-yl)propyl]quinoline-7-carboxamide], the inhibition at 1 µM in data set [1] (setting [3]) worked out at 94%. In data set [1], the IC50 fell in the range of 50 to 100 nM. Moreover, in data set [2], the viability at 1.667 µM was determined as 2%.
The corresponding values for `CCOc1cc(-c2ccc(C)s2)nc2cc(C(=O)NCCCc3nnc[nH]3)ccc12` [Compound I-223, 4-ethoxy-2-(5-methyl-2-thienyl)-N-[3-(4H-1,2,4-triazol-3-yl)propyl]quinoline-7-carboxamide] are greater than 99%, 10 to 50 nM and 3%.
For `CCOc1cc(-c2ccc(Cl)s2)nc2cc(C(=O)NCCCc3nnc[nH]3)ccc12` [Compound I-125, 2-(5-chloro-2-thienyl)-4-ethoxy-N-[3-(4H-1,2,4-triazol-3-yl)propyl]quinoline-7-carboxamide] the same measures were 100%, less than 10 nM and 2%.
The corresponding values for `CCCc1nc(-c2ccc(Cl)cc2)nc2cc(C(=O)NCCCc3nnc[nH]3)ccc12` [Compound I-7, 2-(4-chlorophenyl)-4-propyl-N-[3-(4H-1,2,4-triazol-3-yl)propyl]quinazoline-7-carboxamide] are 97%, 10 to 50 nM and 1%.
With `COCCOCc1nc(-c2ccc(Cl)cc2)nc2cc(C(=O)NCCCc3nnc[nH]3)ccc12` [Compound I-64, N-(3-(4H-1,2,4-yriazol-3-yl)propyl)-2-(4-chlorophenyl)-4-((2-methoxyethoxy)methyl)quinazoline-7-carboxamide], in data set [1] (setting [3]), the inhibition at 1 µM came out at 91%. In data set [1], this compound yielded an IC50 of 50 to 100 nM. Besides, the viability at 1.667 µM in data set [2] was 1%.

(Values after patent US10323018B2 (Millennium Pharmaceuticals, Inc., priority 2015, dated 2019).)
